Tested on: subjects with moderate-to-severe plaque psoriasis
Test: PASI response, Example 1 16-week dose-ranging study
Type: in vivo, human
Details: for PASI 100% Improvement, subjects / PASI ≥75% Improvement, subjects / PASI ≥90% Improvement, subjects: Combined doses
Procedure: The Psoriasis Area and Severity Index (PASI) is a system used for assessing and grading the severity of psoriatic lesions and their response to therapy. In the PASI system, the body is divided into four regions: the head, trunk, upper extremities, and lower extremities. Each of these areas is assessed and scored separately for erythema, induration, and scaling, which are each rated on a scale of 0 to 4 and extent of involvement on a scale of 0 to 6. The PASI produces a numeric score (a “PASI score”) that can range from 0 to 72. A higher score indicates more severe disease.
This was a randomized, double-blind, placebo-controlled, dose-ranging, parallel group, multicenter, interventional study in subjects with moderate-to-severe plaque psoriasis. A target of 240 subjects were enrolled in this study with 40 subjects planned per intervention group.
Clinician-reported outcomes including Psoriasis Area and Severity Index (PASI), Body Surface Area (BSA), Investigator's Global Assessment (IGA), Nail Psoriasis Area and Severity Index (NAPSI), Fingernail Physician's Global Assessment (f-PGA), Static Physician's Global Assessment of Genitalia (s-PGA-G), Physician's Global Assessment of Hands and/or Feet (hf-PGA), and Scalp Specific Investigator Global Assessment (ss-IGA) were obtained at Week 0, 8, and 16. PASI and IGA were also obtained at Weeks 1, 2, 4, and 12, and at Week 20, four weeks after the administration of the tablets has stopped.
The primary efficacy endpoint was the proportion of participants achieving a PASI 75 response at Week 16, defined as at least a 75% reduction from baseline in PASI total score.
For the primary analysis, composite strategy (non-responder imputation) was applied to address intercurrent event #1 (Discontinuation of study intervention due to lack of efficacy or due to an AE of worsening of psoriasis) and #2 (initiation of a protocol-prohibited medication or therapy that could improve psoriasis); and treatment policy strategy (observed data) was applied to intercurrent event #3 (Discontinuation of study intervention due to other reasons). Participants with missing data after application of ICEs are also considered as non-responders.
In addition to the response analysis, pairwise comparisons of each treatment group versus the placebo group were performed for the primary endpoint of PASI 75 at Week 16. Pairwise comparisons were not adjusted for multiplicity. The Cochran-Mantel-Haenszel chi-square statistic stratified by baseline weight category (≤90 kg, >90 kg) at a 2-sided significance level of 0.05 was used (Table 2).

[1] = Week 16, trough plasma conc Q2 to <Q3
[2] = Week 16, trough plasma conc ≥Q3
[3] = Week 16, 25 mg BID, intermediate plasma concentration quartile <Q1, N=1
[4] = Week 16, 25 mg BID, intermediate plasma concentration quartile Q1 to <Q2, N=1
[5] = Week 16, 25 mg BID, intermediate plasma concentration quartile Q2 to <Q3, N=1
[6] = Week 16, 25 mg BID, intermediate plasma concentration quartile ≥Q3, N=1
[7] = Week 16, 25 mg QD, intermediate plasma concentration quartile Q1 to <Q2, N=1
[8] = Week 16, 25 mg QD, intermediate plasma concentration quartile Q2 to <Q3, N=1
[9] = Week 16, 25 mg QD, intermediate plasma concentration quartile ≥Q3, N=1
[10] = Week 16, 50 mg QD, intermediate plasma concentration quartile <Q1, N=1
[11] = Week 16, 50 mg QD, intermediate plasma concentration quartile Q1 to <Q2, N=1
[12] = Week 16, 50 mg QD, intermediate plasma concentration quartile Q2 to <Q3, N=1
[13] = Week 16, 50 mg QD, intermediate plasma concentration quartile ≥Q3, N=2
[14] = Week 16, 100 mg BID, intermediate plasma concentration quartile <Q1, N=1
[15] = Week 16, 100 mg BID, intermediate plasma concentration quartile Q1 to <Q2, N=1
[16] = Week 16, 100 mg BID, intermediate plasma concentration quartile Q2 to <Q3, N=1
[17] = Week 16, 100 mg BID, intermediate plasma concentration quartile ≥Q3, N=2
[18] = Week 16, 100 mg QD, intermediate plasma concentration quartile <Q1, N=1
[19] = Week 16, 100 mg QD, intermediate plasma concentration quartile Q1 to <Q2, N=1
[20] = Week 16, 100 mg QD, intermediate plasma concentration quartile Q2 to <Q3, N=1
[21] = Week 16, 100 mg QD, intermediate plasma concentration quartile ≥Q3, N=1
[22] = Week 16, Combined regimens, intermediate plasma concentration quartile <Q1, N=5
[23] = Week 16, Combined regimens, intermediate plasma concentration quartile Q1 to <Q2, N=5
[24] = Week 16, Combined regimens, intermediate plasma concentration quartile Q2 to <Q3, N=5
[25] = Week 16, Combined regimens, intermediate plasma concentration quartile ≥Q3, N=6

SMILES: CC(=O)NCCCC[C@@H]1NC(=O)[C@H](Cc2c[nH]c3c(C)cccc23)NC(=O)[C@H]([C@@H](C)O)NC(=O)[C@H](CC(N)=O)NC(=O)[C@@H](NC(C)=O)C(C)(C)SSC(C)(C)[C@@H](C(=O)N[C@@H](Cc2ccc(OCCN)cc2)C(=O)N[C@@H](Cc2ccc3ccccc3c2)C(=O)NC2(C(=O)N[C@@H](CCC(=O)O)C(=O)N[C@@H](CC(N)=O)C(=O)N[C@@H](Cc3cccnc3)C(=O)N(C)CC(N)=O)CCOCC2)NC1=O [IL-23 receptor antagonist peptide, Ac-[Pen]*-N-T-[W(7-Me)]-[Lys(Ac)]-[Pen]*-Phe[4-(2-aminoethoxy)]-[2-Nal]-[THP]-E-N-[3-Pal]-Sarc-NH2 (*[Pen]-[Pen]* formdisulfidebond)]
- PASI 100% Improvement, subjects [1]: 4 (15.4%)
- PASI ≥75% Improvement, subjects [1]: 14 (53.8%)
- PASI ≥90% Improvement, subjects [1]: 11 (42.3%)
- PASI 100% Improvement, subjects [2]: 9 (33.3%)
- PASI ≥75% Improvement, subjects [2]: 22 (81.5%)
- PASI ≥90% Improvement, subjects [2]: 15 (55.6%)
- PASI 100% Improvement, subjects n (%) [3]: 0
- PASI ≥75% Improvement, subjects n (%) [3]: 0
- PASI ≥90% Improvement, subjects n (%) [3]: 0
- PASI 100% Improvement, subjects n (%) [4]: 0
- PASI ≥75% Improvement, subjects n (%) [4]: 1 (100.0%)
- PASI ≥90% Improvement, subjects n (%) [4]: 0
- PASI 100% Improvement, subjects n (%) [5]: 0
- PASI ≥75% Improvement, subjects n (%) [5]: 0
- PASI ≥90% Improvement, subjects n (%) [5]: 0
- PASI 100% Improvement, subjects n (%) [6]: 0
- PASI ≥75% Improvement, subjects n (%) [6]: 1 (100.0%)
- PASI ≥90% Improvement, subjects n (%) [6]: 1 (100.0%)
- PASI 100% Improvement, subjects n (%) [7]: 0
- PASI ≥75% Improvement, subjects n (%) [7]: 0
- PASI ≥90% Improvement, subjects n (%) [7]: 0
- PASI 100% Improvement, subjects n (%) [8]: 1 (100.0%)
- PASI ≥75% Improvement, subjects n (%) [8]: 1 (100.0%)
- PASI ≥90% Improvement, subjects n (%) [8]: 1 (100.0%)
- PASI 100% Improvement, subjects n (%) [9]: 0
- PASI ≥75% Improvement, subjects n (%) [9]: 0
- PASI ≥90% Improvement, subjects n (%) [9]: 0
- PASI 100% Improvement, subjects n (%) [10]: 0
- PASI ≥75% Improvement, subjects n (%) [10]: 1 (100.0%)
- PASI ≥90% Improvement, subjects n (%) [10]: 0
- PASI 100% Improvement, subjects n (%) [11]: 1 (100.0%)
- PASI ≥75% Improvement, subjects n (%) [11]: 1 (100.0%)
- PASI ≥90% Improvement, subjects n (%) [11]: 1 (100.0%)
- PASI 100% Improvement, subjects n (%) [12]: 1 (100.0%)
- PASI ≥75% Improvement, subjects n (%) [12]: 1 (100.0%)
- PASI ≥90% Improvement, subjects n (%) [12]: 1 (100.0%)
- PASI 100% Improvement, subjects n (%) [13]: 0
- PASI ≥75% Improvement, subjects n (%) [13]: 1 (50.0%)
- PASI ≥90% Improvement, subjects n (%) [13]: 1 (50.0%)
- PASI 100% Improvement, subjects n (%) [14]: 1 (100.0%)
- PASI ≥75% Improvement, subjects n (%) [14]: 1 (100.0%)
- PASI ≥90% Improvement, subjects n (%) [14]: 1 (100.0%)
- PASI 100% Improvement, subjects n (%) [15]: 1 (100.0%)
- PASI ≥75% Improvement, subjects n (%) [15]: 1 (100.0%)
- PASI ≥90% Improvement, subjects n (%) [15]: 1 (100.0%)
- PASI 100% Improvement, subjects n (%) [16]: 0
- PASI ≥75% Improvement, subjects n (%) [16]: 1 (100.0%)
- PASI ≥90% Improvement, subjects n (%) [16]: 0
- PASI 100% Improvement, subjects n (%) [17]: 2 (100.0%)
- PASI ≥75% Improvement, subjects n (%) [17]: 2 (100.0%)
- PASI ≥90% Improvement, subjects n (%) [17]: 2 (100.0%)
- PASI 100% Improvement, subjects n (%) [18]: 1 (100.0%)
- PASI ≥75% Improvement, subjects n (%) [18]: 1 (100.0%)
- PASI ≥90% Improvement, subjects n (%) [18]: 1 (100.0%)
- PASI 100% Improvement, subjects n (%) [19]: 1 (100.0%)
- PASI ≥75% Improvement, subjects n (%) [19]: 1 (100.0%)
- PASI ≥90% Improvement, subjects n (%) [19]: 1 (100.0%)
- PASI 100% Improvement, subjects n (%) [20]: 0
- PASI ≥75% Improvement, subjects n (%) [20]: 1 (100.0%)
- PASI ≥90% Improvement, subjects n (%) [20]: 0
- PASI 100% Improvement, subjects n (%) [21]: 0
- PASI ≥75% Improvement, subjects n (%) [21]: 1 (100.0%)
- PASI ≥90% Improvement, subjects n (%) [21]: 0)
- PASI 100% Improvement, subjects n (%) [22]: 3 (60.0%)
- PASI ≥75% Improvement, subjects n (%) [22]: 4 (80.0%)
- PASI ≥90% Improvement, subjects n (%) [22]: 3 (60.0%)
- PASI 100% Improvement, subjects n (%) [23]: 2 (40.0%)
- PASI ≥75% Improvement, subjects n (%) [23]: 3 (60.0%)
- PASI ≥90% Improvement, subjects n (%) [23]: 2 (40.0%)
- PASI 100% Improvement, subjects n (%) [24]: 1 (20.0%)
- PASI ≥75% Improvement, subjects n (%) [24]: 3 (60.0%)
- PASI ≥90% Improvement, subjects n (%) [24]: 1 (20.0%)
- PASI 100% Improvement, subjects n (%) [25]: 3 (50.0%)
- PASI ≥75% Improvement, subjects n (%) [25]: 6 (100.0%)
- PASI ≥90% Improvement, subjects n (%) [25]: 5 (83.3%)
- Improvement (reduction) in PASI total score from baseline (each dose group vs placebo, Week 16): significantly greater improvement

Reference: patent US20260232767A1, “INTERLEUKIN-23 RECEPTOR ANTAGONIST PEPTIDES FOR USE IN THE TREATMENT OF PSORIASIS” (Janssen Pharmaceutica NV, priority 2023, published 2026)
